For the experiment, the target named is purified Human plasma Kallikrein (Homo sapiens (Human), UniProt P03952). Put plainly: Kallikrein Assay. Format: biochemical. The note with it: purified Human plasma Kallikrein 0.5 nM; substrate Acetyl-K-P-R-AFC; 50 mM HEPES pH 7.4; Ki from IC50 by Cheng Prusoff. Here is the method: The effectiveness of a compound of the present invention as an inhibitor of Kallikrein can be determined using a relevant purified serine protease, and an appropriate synthetic substrate. The rate of hydrolysis of the chromogenic or fluorogenic substrate by the relevant serine protease was measured both in the absence and presence of compounds of the present invention. Assays were conducted at rt or at 37° C. […] A decrease in the rate of fluorescence change in the presence of inhibitor is indicative of enzyme inhibition. Such methods are known to one skilled in the art. The results of this assay are expressed as the inhibitory constant, Ki.
Kallikrein determinations were made in 50 mM HEPES buffer at pH 7.4 containing 150 mM NaCl, 5 mM CaCl2, and 0.1% PEG 8000 (polyethylene glycol; Fisher Scientific). Determinations were made using purified Human plasma Kallikrein at a final concentration of 0.5 nM (Enzyme Research Laboratories) and the synthetic substrate, Acetyl-K-P-R-AFC (Sigma # C6608) at a concentration of […].
Times required to achieve equilibration between enzyme and inhibitor were determined in control experiments. […] IC50 was determined by inflection point from a four parameter logistic curve fit. Ki was calculated using the Cheng Prusoff equation, Ki=IC50/(1+([S]/Km)).

Sequence of purified Human plasma Kallikrein (P03952 391-638): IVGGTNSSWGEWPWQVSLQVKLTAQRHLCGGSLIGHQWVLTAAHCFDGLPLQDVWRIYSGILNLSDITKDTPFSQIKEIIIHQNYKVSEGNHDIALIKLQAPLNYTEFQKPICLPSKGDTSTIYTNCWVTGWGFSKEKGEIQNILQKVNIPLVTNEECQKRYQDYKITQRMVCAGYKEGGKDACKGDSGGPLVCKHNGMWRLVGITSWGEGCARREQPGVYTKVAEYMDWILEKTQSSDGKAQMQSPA
Sequence of purified Human plasma Kallikrein (P03952 20-390 partner): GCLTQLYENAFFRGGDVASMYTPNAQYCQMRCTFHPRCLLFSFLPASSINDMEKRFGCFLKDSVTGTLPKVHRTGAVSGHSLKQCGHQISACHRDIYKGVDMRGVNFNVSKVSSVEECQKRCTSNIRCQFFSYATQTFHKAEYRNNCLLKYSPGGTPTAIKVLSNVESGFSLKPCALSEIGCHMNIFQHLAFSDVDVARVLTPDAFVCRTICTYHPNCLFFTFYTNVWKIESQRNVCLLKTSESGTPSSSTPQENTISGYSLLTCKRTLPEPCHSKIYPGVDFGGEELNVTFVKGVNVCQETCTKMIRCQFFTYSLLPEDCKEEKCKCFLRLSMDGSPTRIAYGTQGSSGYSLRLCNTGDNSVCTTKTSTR

For orientation: Ki means a dissociation constant, usually derived from enzyme kinetics or from competition with a known ligand. A lower Ki goes with higher affinity. Regarding `COC(=O)Nc1ccc2c(c1)NC(=O)C(C)CCCC(c1ccc(-c3c(F)ccc(Cl)c3F)c[n+]1[O-])c1nc-2c[nH]1` (single isomer, unassigned) [Example 114-a, (Z)-5-(3-chloro-2,6-difluorophenyl)-2-(2^4-((methoxycarbonyl)amino)-5-methyl-4-oxo-1^1H-3-aza-1(4,2)-imidazola-2(1,2) -benzenacyclononaphane-9-yl)pyridine 1-oxide], the Ki was 0.24 nM.

Compound `COC(=O)Nc1ccc2c(c1)NC(=O)[C@H](C)CCC[C@H](c1ccc(-c3c(OC(F)F)ccc(F)c3F)c[n+]1[O-])c1nc-2c(C)[nH]1` (single isomer, unassigned) [Example 150-a] yielded a Ki of 0.51 nM.

`COC(=O)Nc1ccc2c(c1)NC(=O)CCCC[C@H](c1ccc(-c3c(F)cccc3OC(F)F)c[n+]1[O-])c1cccc-2c1` (single isomer, unassigned) [Example 34] registered a Ki of 5.01 nM.

Compound `COC(=O)Nc1ccc2c(c1)NC(=O)CCCC[C@H](c1ccc(-c3c(F)cccc3-n3cc(C(F)(F)F)cn3)c[n+]1[O-])c1nc-2c(C)[nH]1` (single isomer, unassigned) [Example 137] showed a Ki of 418 nM.

As for `COC(=O)Nc1ccc2c(c1)NC(=O)CCCC[C@H](c1ccc(-c3c(F)cccc3-n3cc(C(F)(F)F)cn3)c[n+]1[O-])c1nc-2c[nH]1` (single isomer, unassigned) [Example 115], the Ki is 331 nM.

The compound `COC(=O)Nc1ccc2c(c1)NC(=O)C(C)CCCC(c1ccc(-c3c(F)ccc(Cl)c3F)cn1)c1cc-2ccn1` (single isomer, unassigned) [Example 95-d, Methyl (9-(5-(3-chloro-2,6-difluorophenyl)pyridin-2-yl)-5-methyl-4-oxo-3-aza-1(4,2)-pyridina-2(1,2)-benzenacyclononaphane-2^4-yl)carbamate] returned a Ki of 10.8 nM.

Consider `COC(=O)Nc1ccc2c(c1)NC(=O)CCCCC(c1ccc(-c3c(F)ccc(Cl)c3F)c[n+]1[O-])c1ccnc-2c1` (single isomer, unassigned) [Example 93-a, 5-(3-Chloro-2,6-difluorophenyl)-2-(2^4-((methoxycarbonyl)amino)-4-oxo-3-aza-1 (2,4)-pyridina-2(1,2)-benzenacyclononaphane-9-yl)pyridine 1-oxide], for which the affinity corresponds to a Ki of 1.92 nM.

Consider `COC(=O)Nc1ccc2c(c1)NC(=O)[C@H](C)CCC[C@H](c1ccc(-c3c(F)cccc3F)c[n+]1[O-])c1nc-2c(C2CC2)[nH]1` (single isomer, unassigned) [Example 145-a], for which the Ki was 0.3 nM.

`COC(=O)Nc1ccc2c(c1)NC(=O)[C@H](C)CCC[C@H](c1ccc(-c3cc(F)ccc3OC(F)(F)F)c[n+]1[O-])c1nc-2c(C)[nH]1` (single isomer, unassigned) [Example 149-a]: affinity was put at a Ki of 2.02 nM.

`C[C@H]1CCC[C@@H](c2ccc(-c3cc(Cl)ccc3-n3cc(C(F)(F)F)cn3)c[n+]2[O-])c2cccc(c2)-c2c(cnn2C(F)F)NC1=O` (single isomer, unassigned) [Example 168-d] gave a Ki of 161 nM.

As for `COC(=O)Nc1ccc2c(c1)NC(=O)CC[C@H](C)C[C@H](c1ccc(-c3c(F)cccc3OC(F)F)c[n+]1[O-])c1nc-2c(C)[nH]1` (single isomer, unassigned) [Example 152-b], affinity was put at a Ki of 114 nM.

Consider `COC(=O)Nc1ccc2c(c1)NC(=O)C(C)CCCC(c1ccc(-c3c(F)ccc(Cl)c3F)c[n+]1[O-])c1nc-2c[nH]1` (single isomer, unassigned) [Example 114-c, (Z)-5-(3-chloro-2,6-difluorophenyl)-2-(2^4-((methoxycarbonyl)amino)-5-methyl-4-oxo-1^1H-3-aza-1(4,2)-imidazola-2(1,2) -benzenacyclononaphane-9-yl)pyridine 1-oxide], for which the affinity, expressed as Ki, was 0.78 nM.

Take `CCc1[nH]c2nc1-c1ccc(NC(=O)OC)cc1NC(=O)[C@@H](C)CCC[C@@H]2c1ccc(-c2c(F)cccc2OC(F)F)c[n+]1[O-]` (single isomer, unassigned) [Example 146-c]: affinity was put at a Ki of 3.46 nM.

As for `COC(=O)Nc1ccc2c(c1)NC(=O)CCCC[C@H](c1ccc(-c3c(OC(F)F)ccc(F)c3F)c[n+]1[O-])c1nc-2c(C)[nH]1` (single isomer, unassigned) [Example 130], the Ki stood at 0.66 nM.

The compound `COC(=O)Nc1ccc2c(c1)NC(=O)C(C)CCCC(c1cc(OC)c(-c3c(F)ccc(Cl)c3F)c[n+]1[O-])c1cccc-2c1` (single isomer, unassigned) [Example 88-b, 5-(3-Chloro-2,6-difluorophenyl)-4-methoxy-2-(2^4-((methoxycarbonyl)amino)-5-methyl-4-oxo-3-aza-1(1,3),2(1,2) -dibenzenacyclononaphane-9-yl)pyridine 1-oxide] came in with a Ki of 2.67 nM.

The compound `COC(=O)Nc1ccc2c(c1)NC(=O)CC[C@H](C)C[C@H](c1ccc(-c3c(F)ccc(Cl)c3F)c[n+]1[O-])c1nc-2c(C)[nH]1` (single isomer, unassigned) [Example 151-b] displayed a Ki of 10.8 nM.

Take `COC(=O)Nc1ccc2c(c1)NC(=O)[C@@H](C)CCC[C@H](c1ccc(-c3c(F)cccc3F)c[n+]1[O-])c1nc-2c(C2CC2)[nH]1` (single isomer, unassigned) [Example 145-c]: the Ki is 1.1 nM.

`COC(=O)Nc1ccc2c(c1)NC(=O)[C@@H](C)CCC[C@@H](c1ccc(-c3c(OC(F)F)ccc(F)c3F)c[n+]1[O-])c1nc-2c(C)[nH]1` (single isomer, unassigned) [Example 150-b] registered a Ki of 31.2 nM.

Consider `COC(=O)Nc1ccc2c(c1)NC(=O)[C@H](C)CCC[C@H](c1ccc(-c3cc(Cl)ccc3OC(F)(F)F)c[n+]1[O-])c1cccc-2c1` (single isomer, unassigned) [Example 77-a], for which the Ki is 1.69 nM.

`COC(=O)Nc1ccc2c(c1)NC(=O)CC[C@@H](C)C[C@H](c1ccc(-c3c(F)cccc3OC(F)F)c[n+]1[O-])c1nc-2c(C)[nH]1` (single isomer, unassigned) [Example 152-a] displayed an inhibitory constant (Ki) of 2.76 nM.

The compound `COC(=O)Nc1ccc2c(c1)NC(=O)CCCC[C@H](c1ccc(-c3cc(Cl)ccc3-n3cnnn3)c[n+]1[O-])c1cc-2ncc1F` (single isomer, unassigned) [Example 71] showed a Ki of 0.33 nM.

For the compound `COC(=O)Nc1ccc2c(c1)NC(=O)C(C)CCCC(c1cc(OC)c(-c3c(F)ccc(Cl)c3F)c[n+]1[O-])c1cccc-2c1` (single isomer, unassigned) [Example 88-d, 5-(3-Chloro-2,6-difluorophenyl)-4-methoxy-2-(2^4-((methoxycarbonyl)amino)-5-methyl-4-oxo-3-aza-1(1,3),2(1,2) -dibenzenacyclononaphane-9-yl)pyridine 1-oxide], the affinity, expressed as Ki, was 5.21 nM.

As for `COC(=O)Nc1ccc2c(c1)NC(=O)CCCC[C@H](c1ccc(-c3cc(Cl)ccc3-n3cc(C4CC4)nn3)c[n+]1[O-])c1cccc-2c1` (single isomer, unassigned) [Example 38], the affinity corresponds to a Ki of 0.95 nM.

In the case of `COC(=O)Nc1ccc2c(c1)NC(=O)C(C)CCCC(c1ccc(-c3c(F)ccc(Cl)c3F)cn1)c1cc-2ccn1` (single isomer, unassigned) [Example 95-a, Methyl (9-(5-(3-chloro-2,6-difluorophenyl)pyridin-2-yl)-5-methyl-4-oxo-3-aza-1(4,2)-pyridina-2(1,2)-benzenacyclononaphane-2^4-yl)carbamate], the Ki came out at 11.7 nM.

The values above are taken from patent US10214512B2, “Factor XIA inhibitors” (MERCK SHARP & DOHME CORP., priority 2015, dated 2019).
